Each structure is given as a SMILES string.

One may read the IC50 as the concentration that inhibits the measured activity by half.

The target in test [1] is recombinant human mPGES-1 (Homo sapiens (Human), UniProt O14684). Briefly: mPGES-1 enzyme assay (HTRF detection of PGE2). The test is classed as biochemical. To be noted: recombinant human mPGES-1 microsomes, PGH2 2 μM, 60 seconds; read-out: mPGES-1 inhibitory effect IC50 in the enzyme assay. The essentials:
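Microsomes from E. coli expressing recombinant human mPGES-1 (~0.5 μg protein/well) in 0.1 M phosphate pH 7.4 with 2.5 mM GSH, pre-incubated with compound 25 min at room temperature. PGH2 (2 μM final) added, reaction stopped with FeCl2 after 60 s; PGE2 quantified by HTRF (665/620 ratio) against a calibration curve, IC50 by nonlinear regression after background subtraction.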

Another test concerns the target mPGES-1 in A549 cells (Homo sapiens (Human), UniProt O14684). Briefly: A549 cell-based assay (PGE2 formation, 50% human serum). To be noted: IL-1β 5 ng/ml, 10 nM arachidonic acid, 20-24 h, read-out: mPGES-1 inhibitory effect IC50 in the cell assay. A digest of the protocol:
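A549 cells in F-12K with 50% human serum were stimulated 20-24 h with 5 ng/ml IL-1β and 10 nM arachidonic acid in presence of compound or vehicle. PGE2 in the cell-free medium was measured by HTRF, normalised to vehicle (100%). IC50 from 6-8 point titrations.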

mPGES-1 in A549 cells, sequence (O14684 whole entry): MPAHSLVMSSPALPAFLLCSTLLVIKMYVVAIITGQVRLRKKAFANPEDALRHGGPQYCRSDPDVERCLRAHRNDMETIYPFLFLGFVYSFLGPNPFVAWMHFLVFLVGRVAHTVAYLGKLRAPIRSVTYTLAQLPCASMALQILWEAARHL
recombinant human mPGES-1, sequence (O14684 whole entry): as above

With `Cn1c(Nc2c(Cl)ccc(CNC(=O)C(C)(C)F)c2Cl)nc2cc(C(=O)Nc3ccc(F)c(Cl)c3)c(N3CCC(C(F)(F)F)CC3)cc21` [Example 231, N-(3-Chloro-4-fluoro-phenyl)-2-{2,6-dichloro-3-[(2-fluoro-2-methyl-propionylamino)-methyl]-phenylamino}-6-[4-trifluoromethyl-piperidinyl]-1-methyl-1H-benzimidazole-5-carboxylic acid amide], the half-inhibitory concentration (IC50) was 2 nM in test [1] and 1.1 nM at mPGES-1 in A549 cells.
Turning to `Cn1c(Nc2c(Cl)ccc(CNC(=O)C(C)(C)C)c2Cl)nc2cc(C(=O)N[C@H]3CC[C@H](C(F)(F)F)CC3)c(N3CCNC(C(F)(F)F)C3)cc21` (some centres unmarked) [Example 131], the IC50 in test [1] is 2 nM; on mPGES-1 in A549 cells, 1 nM.
For `CN(c1cc2c(cc1C(=O)N[C@H]1CC[C@H](C(F)(F)F)CC1)nc(Nc1c(Cl)ccc(CNC(=O)C(C)(C)C)c1Cl)n2C)C1CCSC1` (stereo partly drawn) [Example 117, N-(trans-4-trifluoromethyl-cyclohexyl)-2-{2,6-dichloro-3-[(2,2-dimethyl-propionylamino)-methyl]-phenylamino}-6-[N-methyl-N-(tetrahydro-thiophen-3-yl)-amino]-1-methyl-1H-benzimidazole-5-carboxylic acid amide] the same measures were 2 nM and 2 nM.
On to `Cn1c(Nc2c(Cl)ccc(CNC(=O)[C@@](C)(O)C(F)(F)F)c2Cl)nc2cc(C(=O)N[C@H]3CC[C@H](C(F)(F)F)CC3)c(N3CCC(C(F)(F)F)CC3)cc21` [Example 251], for which the IC50 amounted to 3.9 nM in test [1] and 1 nM at mPGES-1 in A549 cells.
The matching figures for `Cn1c(Nc2c(Cl)ccc(CNC(=O)C(C)(C)C)c2Cl)nc2cc(C(=O)Nc3cc(C(C)(C)CO)no3)c(N3CCC(C(F)(F)F)CC3)cc21` [Example 160]: 4 nM and 3 nM.
For `Cn1c(Nc2c(Cl)ccc(CNC(=O)C(C)(C)C)c2Cl)nc2cc(C(=O)NCC(F)(F)C(F)(F)F)c(N3CCC(F)(F)C3)cc21` [Example 50], the IC50 in test [1] stood at 3 nM; on mPGES-1 in A549 cells, 2 nM.
For `Cn1c(Nc2c(Cl)ccc(CNC(=O)C(C)(C)C)c2Cl)nc2cc(C(=O)Nc3ccc(OC(F)(F)F)cc3)c(N3CCOCC3)cc21` [Example 141] the same measures were 2 nM and 1 nM.
The matching figures for `CC(C)C(NC(=O)c1cc2nc(Nc3c(Cl)ccc(CNC(=O)C(C)(C)C)c3Cl)n(C)c2cc1N1CCC(F)(F)C1)C(F)(F)F` (centres unmarked) [Example 49]: 4 nM and 4 nM.
`CN(CCS(C)(=O)=O)c1cc2c(cc1C(=O)N[C@H]1CC[C@H](C(F)(F)F)CC1)nc(Nc1c(Cl)ccc(CNC(=O)C(C)(C)C)c1Cl)n2C` [Example 105]: the IC50 in test [1] was found to be 2 nM; on mPGES-1 in A549 cells it was 10 nM.
For the compound `Cn1c(Nc2c(Cl)ccc(CNC(=O)C(C)(C)C)c2Cl)nc2cc(C(=O)Nc3ccc(F)c(Cl)c3)c(N3CC[C@@H](F)C3)cc21` [Example 246], the IC50 stood at 2.9 nM in test [1] and 1.5 nM on mPGES-1 in A549 cells.
The matching figures for `Cn1c(Nc2c(Cl)ccc(CNC(=O)C(C)(C)C)c2Cl)nc2cc(C(=O)NCCC(F)(F)F)c(N3CC4CC4C3)cc21` (centres unmarked) [Example 135]: 3 nM and 5 nM.
For `Cn1c(Nc2c(Cl)ccc(CNC(=O)C(C)(C)C)c2Cl)nc2cc(C(=O)NCC(F)(F)F)c(N3CCC(C(C)(C)O)CC3)cc21` [Example 29, N-(2,2,2-Trifluoroethyl)-2-{2,6-dichloro-3-[(2,2-dimethyl-propionylamino)-methyl]-phenylamino}-6-[4-(1-hydroxy-1-methyl-ethyl)-piperidinyl]-1-methyl-1H-benzimidazole-5-carboxylic acid amide] the same measures were 2 nM and 3 nM.
The matching figures for `Cn1c(Nc2c(Cl)ccc(CNC(=O)c3cccc(O)c3)c2Cl)nc2cc(C(=O)NCCC(F)(F)F)c(N3CCC(C(F)(F)F)CC3)cc21` [Example 178]: 5 nM and 28 nM.
